Experimental data published in US20190142881A1, “BACTERIOPHAGE COMPOSITIONS AND USES THEREOF” (priority 2016, published 2019).
In brackets after ≈: the same amount, converted by molar mass. Read-outs that look alike come from different tables or passages of the source.

Legend:
strain PA01 ΔoprM = experiment: Minimum inhibitory concentration (eTest strip) on knockout PA01 ΔoprM; assay type: cell-based; conditions: Pseudomonas aeruginosa
Description: (§1) Bacterial strains were grown overnight at 37° C. as described above. A 200 μL sample of the culture was then spread onto an LB agar plate, and allowed to dry for 10 minutes, followed by application of an eTestStrip (BioMerieux) for a test antibiotic. […] Each strain was tested in triplicate for each antibiotic.
(§2) The effects of phage resistance on sensitivity to the four drugs was tested in replicated assays with PA01 and PA14, as well as with three environmental strains (PAN, 1607, 1845) and three clinical isolates (PAPS, PASk, PADFU). In these assays, the phage-OMKO1 resistant strain was either a knockout mutant (ΔoprM derived from PA01), or an independently derived spontaneous mutant of the associated parental strain.

[1] = tested on: strain ΔmexR (derived from PA01); experiment: Minimum inhibitory concentration (eTest strip) on control knockout ΔmexR; assay type: cell-based; conditions: Pseudomonas aeruginosa, average ± SD, phage-sensitive, over-expresses Mex systems
Description: as §1
As a control for transposon insertion, strain ΔmexR, which was also derived from PA01, was examined. mexR, the repressor of MexAB-OprM and MexXY-OprM operons should not negatively alter phage sensitivity.

[2] = tested on: P. aeruginosa isolated from the patient, susceptible to phage OMKO1; experiment: MIC by eTest strip, patient isolate before phage exposure; assay type: cell-based, Pseudomonas aeruginosa
Description: as §1
(§3) P. aeruginosa isolated from the patient was subjected to Deep Sequencing (Next Generation Sequencing) on the Illumina HiSeq 2000 platform to confirm species identity and presence of genes known to be associated with efflux-pump mechanisms for resistance to antibiotics. Furthermore, a trade-off between phage OMKO1 sensitivity and antibiotic susceptibility was confirmed as per methods disclosed elsewhere herein (FIG. 5). Phage OMKO1 was sequenced also on the HiSeq 2000 platform and found to be in the PhiKZ-like virus genus.

[3] = tested on: P. aeruginosa isolated from the patient, resistant to phage OMKO1; experiment: MIC by eTest strip, patient isolate after evolved resistance to phage OMKO1; assay type: cell-based, Pseudomonas aeruginosa
Description: (§4) Phage OMKO1 was amplified on P. aeruginosa in liquid culture in conditions identical to the Serial passage assays. Following 12 hours of amplification, 100 μl of culture was plated on LB agar and incubated for 12 hours. Individual colony-forming units (CFUs) were then collected, and verified to be phage resistant by classic ‘spot tests’ (i.e., 10^7 PFU of phage OMKO1 was pipetted onto a lawn of each bacterial isolate to test whether the phage was capable of visibly clearing the lawn [indicating bacterial sensitivity to phage] versus incapable of clearing the lawn [indicating bacterial resistance to phage]).
as §1, §3

[4] = tested on: 72-hour-old P. aeruginosa biofilms; experiment: Biofilm elimination assays on prosthetic materials; conditions: single agent (antibiotics at 2×MIC)
[5] = tested on: environmental isolates (PAN, 1607, 1845); experiment: MIC trade-off assay, phage-resistant mutants of environmental isolates; assay type: cell-based, Pseudomonas aeruginosa; conditions: phage-resistant mutant versus parental strain
Description: as §4, §1, §2

[6] = tested on: environmental and clinical P. aeruginosa strains; experiment: MIC trade-off assay, phage-resistant mutants of environmental and clinical strains; assay type: cell-based, Pseudomonas aeruginosa; conditions: majority of outcomes showing statistical significance
[7] = Pseudomonas aeruginosa, read-out: MIC
[8] = Dacron sections, 24 h treatment, regrowth OD600

Compound	MIC (strain PA01 ΔoprM)	MIC [1]	MIC [2, 7]	MIC ([3]; Pseudomonas aeruginosa)	elimination of 72-hour biofilms [4, 8]	elimination of 72-hour biofilms ([4]; Gore-Tex sections)	elimination of 72-hour biofilms ([4]; felt pieces)	elimination of 72-hour biofilms ([4]; polypropylene suture)	change in antibiotic sensitivity on resistance to phage OMKO1 [5]	change in drug sensitivity on phage resistance [6]	MIC [2]	MIC ([3]; eTest strip, after evolved resistance to phage OMKO1)
O=C(O)c1cn(C2CC2)c2cc(N3CCNCC3)c(F)cc2c1=O [CIP, Ciprofloxacin]	0.016 µg/mL (≈ 0.0483 µM)	32 µg/mL (≈ 96.6 µM)	1.17 µg/mL (≈ 3.54 µM)	0.014 µg/mL (≈ 0.0423 µM)	Neither ciprofloxacin nor ceftazidime at 2×MIC was sufficient to eliminate 72 hour biofilms	unable to remove 72-hour biofilms	neither antibiotic alone significantly removed 72-hour biofilms	not by antibiotics at 2×MIC	–	–	–	–
CC[C@H]1OC(=O)[C@H](C)[C@@H](O[C@H]2C[C@@](C)(OC)[C@@H](O)[C@H](C)O2)[C@H](C)[C@@H](O[C@@H]2O[C@H](C)C[C@H](N(C)C)[C@H]2O)[C@](C)(O)C[C@@H](C)C(=O)[C@H](C)[C@@H](O)[C@]1(C)O [EM, Erythromycin]	4.67 µg/mL (≈ 6.36 µM)	256 ± 0.577 µg/mL (≈ 349 µM)	–	–	–	–	–	–	increased sensitivity	–	–	–
CC(C)(O/N=C(\C(=O)N[C@@H]1C(=O)N2C(C(=O)[O-])=C(C[n+]3ccccc3)CS[C@H]12)c1csc(N)n1)C(=O)O [CAZ, Ceftazidime]	0.21 ± 0.144 µg/mL (≈ 0.384 µM)	1.33 ± 0.035 µg/mL (≈ 2.44 µM)	1.67 µg/mL (≈ 3.05 µM)	0.35 µg/mL (≈ 0.64 µM)	Neither ciprofloxacin nor ceftazidime at 2×MIC was sufficient to eliminate 72 hour biofilms	unable to remove 72-hour biofilms	neither antibiotic alone significantly removed 72-hour biofilms	not by antibiotics at 2×MIC	–	greater drug sensitivity	–	–
gentamicin	–	–	–	–	–	–	–	–	–	–	3.7 µg/mL	0.833 µg/mL
NC[C@H]1O[C@H](O[C@H]2[C@H](O)[C@@H](O[C@H]3O[C@H](CO)[C@@H](O)[C@H](N)[C@H]3O)[C@H](N)C[C@@H]2N)[C@H](N)C[C@@H]1O [tobramycin]	–	–	11.3 µg/mL (≈ 24.2 µM)	3.67 µg/mL (≈ 7.84 µM)	–	–	–	–	–	–	–	–
CN(C)[C@@H]1C(O)=C(C(N)=O)C(=O)[C@@]2(O)C(O)=C3C(=O)c4c(O)cccc4[C@@](C)(O)[C@H]3C[C@@H]12 [TET, Tetracycline]	2 µg/mL (≈ 4.5 µM)	256 µg/mL (≈ 576 µM)	–	–	–	–	–	–	–	–	–	–
